Reference: patent US7803795B2, “Phthalazine derivatives as parp inhibitors” (Janssen Pharmaceutica N.V., priority 2004, dated 2010)
Counter-ions that a name gives are not always drawn.

What was measured:
TANK-2 enzyme = biological target: T1, TANK-2 enzyme (Homo sapiens, UniProt Q9H2K2); experiment: in vitro Scintillation Proximity Assay (SPA) for TANK-2 inhibitory activity; assay type: biochemical
T1 construct: His tag (inferred from capture on a Ni-coated plate); made in house
T1 sequence (Q9H2K2 1-1166): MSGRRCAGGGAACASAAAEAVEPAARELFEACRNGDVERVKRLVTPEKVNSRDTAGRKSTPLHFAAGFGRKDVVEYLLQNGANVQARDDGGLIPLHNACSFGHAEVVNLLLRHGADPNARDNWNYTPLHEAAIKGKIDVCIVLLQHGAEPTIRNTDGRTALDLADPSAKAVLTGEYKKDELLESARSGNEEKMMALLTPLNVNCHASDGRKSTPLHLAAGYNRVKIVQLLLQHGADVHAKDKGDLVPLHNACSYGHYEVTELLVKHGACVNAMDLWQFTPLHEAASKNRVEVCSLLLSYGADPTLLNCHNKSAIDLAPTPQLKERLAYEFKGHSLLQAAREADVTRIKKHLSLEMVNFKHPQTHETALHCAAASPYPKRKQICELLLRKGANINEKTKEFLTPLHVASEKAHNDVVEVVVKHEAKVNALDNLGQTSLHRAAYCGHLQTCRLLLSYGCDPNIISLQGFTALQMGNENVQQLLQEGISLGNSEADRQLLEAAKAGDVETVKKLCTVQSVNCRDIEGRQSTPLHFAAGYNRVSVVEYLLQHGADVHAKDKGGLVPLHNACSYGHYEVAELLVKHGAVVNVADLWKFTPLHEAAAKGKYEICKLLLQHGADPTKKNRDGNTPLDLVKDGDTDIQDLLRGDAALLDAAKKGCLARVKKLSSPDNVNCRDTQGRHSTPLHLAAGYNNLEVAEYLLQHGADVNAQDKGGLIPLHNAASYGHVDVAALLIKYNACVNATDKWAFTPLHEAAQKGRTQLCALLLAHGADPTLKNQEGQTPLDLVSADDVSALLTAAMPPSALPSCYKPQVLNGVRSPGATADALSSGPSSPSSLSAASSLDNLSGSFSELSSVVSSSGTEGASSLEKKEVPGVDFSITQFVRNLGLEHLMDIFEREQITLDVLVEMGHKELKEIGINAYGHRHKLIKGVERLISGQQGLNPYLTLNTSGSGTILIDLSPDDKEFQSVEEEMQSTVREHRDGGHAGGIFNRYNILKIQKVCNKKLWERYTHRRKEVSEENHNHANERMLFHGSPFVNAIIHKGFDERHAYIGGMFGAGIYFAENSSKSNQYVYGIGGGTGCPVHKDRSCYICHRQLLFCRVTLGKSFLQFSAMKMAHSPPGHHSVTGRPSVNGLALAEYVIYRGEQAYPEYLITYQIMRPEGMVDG
Method: In Vitro Scintillation Proximity Assay (SPA) for Tank-2 Inhibitory Activity
Compounds of the present invention were tested in an in vitro assay based on SPA technology with Ni Flash plates (96 or 384 well).
In principle, the assay relies upon SPA technology for the detection of auto-poly(ADP-ribosylation of TANK-2 protein using [^3H]-nicotinamide adenine dinucleotide ([^3H]-NAD^+) as ADP-ribosyl donor.
A stock solution of [^3H]-NAD^+/NAD was made by adding 64.6 μl of [^3H]-NAD^+ (0.1 mCi/ml, supplier: Perkin Elmer) and 46.7 μl NAD-stock (10.7 mM, stored at −20° C., supplier Roche) to 1888.7 μl assay buffer (60 mM Tris/HCl, pH 7.4; 0.9 mM DTT; 6 mM MgCl2). The TANK-2 enzyme was produced as described in EP1238063.60 μl of assay buffer, together with 1 μl of compound in DMSO, 20 μl of [^3H]-NAD^+/NAD and 20 μl of TANK-2 enzyme (final concentration 6 μg/ml) was added per well into a 96-well Ni-coated flash plate (Perkin Elmer). After incubation of the mixture for 120 min. at room temperature, the reaction was terminated by adding 60 μl of stopsolution (42.6 mg NAD in 6 ml H2O). The plates were covered with a plate sealer and placed in a TopCountNXT™ (Packard) for scintillation counting. Values were expressed as counts per minute (cpm). For each experiment, controls (containing TANK-2 enzyme and DMSO without compound), a blank incubation (containing DMSO but no TANK-2 enzyme or compound) and samples (containing TANK-2 enzyme and compound dissolved in DMSO) were run in parallel. All compounds tested were dissolved and eventually further diluted in DMSO. […] In each test, the blank value was subtracted from both the control and the sample values. The control sample represented maximal TANK-2 enzyme activity. For each sample, the amount of cpm was expressed as a percentage of the mean cpm value of the controls. When appropriate, IC50-values (concentration of the drug, needed to reduce the TANK-2 enzyme activity to 50% of the control) were computed using linear interpolation between the experimental points just above and below the 50% level. Herein the effects of test compounds are expressed as pIC50 (the negative log value of the IC50-value). As reference compounds, 3-aminobenzamide and 4-amino-1,8-naphthalimide were included to validate the SPA assay. Herein the assay was described using 96-well plates. In the assay using 384-well plates the same final concentrations were used and volumes were adapted.

PARP-1 enzyme = biological target: T2, PARP-1 enzyme (Homo sapiens, UniProt P09874); experiment: in vitro filtration assay for PARP-1 inhibitory activity; assay type: biochemical; conditions: [32P]-NAD, histones, nicked DNA; dose-response 10^-5 M to 10^-8 M; read-out: in vitro filter assay PARP-1 pIC50 (converted)
T2 construct: made in house
Method: In Vitro Filtration Assay for PARP-1 Inhibitory Activity
Compounds of the present invention were tested in an in vitro filtration assay assessing PARP-1 activity (triggered in the presence of nicked DNA) by means of its histone poly (ADP-ribosylation activity using [^32P]-NAD as ADP-ribosyl donor. The radioactive ribosylated histones were precipitated by trichloroacetic acid (TCA) in 96-well filterplates and the incorporated [^32P] measured using a scintillation counter
A mixture of histones (stock solution: 5 mg/ml in H2O), NAD^+ (stock solution: 100 mM in H2O), and [^32P]-NAD^+ in incubation buffer (50 mM Tris/HCl, pH 8; 0.2 mM DTT; 4 mM MgCl2) was made. A mixture of the PARP-1 enzyme (5-10 μg/ml) and nicked DNA was also made. The nicked DNA was prepared as described in the in vitro SPA for PARP-1 inhibitory activity. Seventy-five μl of the PARP-1 enzyme/DNA mixture together with 1 μl of compound in DMSO and 25 μl of histones-NAD^+/[^32P]-NAD^+ mixture was added per well of a 96-well filterplate (0.45 μm, supplier Millipore). The final concentrations in the incubation mixture were 2 μg/ml for the histones, 0.1 mM for the NAD^+, […] (0.5 μC) for the [^32P]-NAD^+ and 2 μg/ml for the nicked DNA. Plates were incubated for 15 min. at room temperature and the reaction was terminated by the addition of 10 μl ice cold 100% TCA followed by the addition of 10 μl ice-cold BSA solution (1% in H2O). The protein fraction was allowed to precipitate for 10 min. at 4° C. and plates were vacuum filtered. The plates were subsequently washed with, for each well, 1 ml of 10% ice cold TCA, 1 ml of 5% ice cold TCA and 1 ml of 5% TCA at room temperature. Finally 100 μl of scintillation solution (Microscint 40, Packard) was added to each well and the plates were transferred to a TopCountNXT™ (supplier: Packard) for scintillation counting and values were expressed as counts per minute (cpm). For each experiment, controls (containing PARP-1 enzyme and DMSO without compound), a blank incubation (containing DMSO but no PARP-1 enzyme or compound) and samples (containing PARP-1 enzyme and compound dissolved in DMSO) were run in parallel. All compounds tested were dissolved and eventually further diluted in DMSO. In first instance, compounds were tested at a concentration of 10^−5M. […] In each test, the blank value was subtracted from both the control and the sample values. The control sample represented maximal PARP-1 enzyme activity. For each sample, the amount of cpm was expressed as a percentage of the mean cpm value of the controls. When appropriate, IC50-values (concentration of the drug, needed to reduce the PARP-1 enzyme activity to 50% of the control) were computed using linear interpolation between the experimental points just above and below the 50% level. Herein the effects of test compounds are expressed as pIC50 (the negative log value of the IC50-value). As a reference compound, 4-amino-1,8-naphthalimide was included to validate the filtration assay.

T2 sequence (P09874 whole entry): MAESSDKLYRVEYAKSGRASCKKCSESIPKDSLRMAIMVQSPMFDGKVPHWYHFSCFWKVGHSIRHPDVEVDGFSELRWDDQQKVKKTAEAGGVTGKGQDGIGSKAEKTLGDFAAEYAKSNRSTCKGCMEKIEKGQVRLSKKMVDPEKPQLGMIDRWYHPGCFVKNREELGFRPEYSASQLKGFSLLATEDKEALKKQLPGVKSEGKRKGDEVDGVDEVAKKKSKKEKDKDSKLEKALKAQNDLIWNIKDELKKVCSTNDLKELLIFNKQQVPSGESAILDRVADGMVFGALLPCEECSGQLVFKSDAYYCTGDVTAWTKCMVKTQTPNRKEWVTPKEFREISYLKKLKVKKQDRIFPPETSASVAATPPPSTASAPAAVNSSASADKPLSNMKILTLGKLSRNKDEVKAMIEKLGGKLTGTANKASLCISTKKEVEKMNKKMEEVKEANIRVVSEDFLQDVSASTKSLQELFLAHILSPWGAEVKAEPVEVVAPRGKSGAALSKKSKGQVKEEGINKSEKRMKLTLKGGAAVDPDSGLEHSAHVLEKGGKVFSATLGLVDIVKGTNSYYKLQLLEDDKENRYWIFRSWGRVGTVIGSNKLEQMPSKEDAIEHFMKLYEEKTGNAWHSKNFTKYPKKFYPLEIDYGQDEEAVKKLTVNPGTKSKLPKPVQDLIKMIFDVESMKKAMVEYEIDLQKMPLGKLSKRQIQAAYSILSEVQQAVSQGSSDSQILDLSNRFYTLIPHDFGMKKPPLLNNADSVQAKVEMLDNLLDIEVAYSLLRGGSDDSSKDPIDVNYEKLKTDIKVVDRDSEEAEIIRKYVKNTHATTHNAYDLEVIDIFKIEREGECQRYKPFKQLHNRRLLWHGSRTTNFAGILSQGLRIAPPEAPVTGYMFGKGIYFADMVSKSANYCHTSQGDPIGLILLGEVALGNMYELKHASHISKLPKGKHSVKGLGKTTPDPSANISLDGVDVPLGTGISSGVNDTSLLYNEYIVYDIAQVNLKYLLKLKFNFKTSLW

SMILES: Cc1cccc(N2CCN(c3nnc(Cl)c4ccccc34)CC2)c1 [Compound 81]
- IC50 (TANK-2 enzyme): 2790 nM

SMILES: O=c1[nH]nc(NCC2CCNCC2)c2ccccc12 [Compound 36]
- IC50 (PARP-1 enzyme): 83.8 nM
- IC50 (TANK-2 enzyme): 3130 nM

SMILES: NCCN1CCC(Nc2n[nH]c(=O)c3ccccc23)CC1 [Compound 33]
- IC50 (PARP-1 enzyme): 154 nM
- IC50 (TANK-2 enzyme): > 10000 nM

SMILES: O=c1[nH]nc(C2CCN(C[C@H](O)[C@@H]3CCc4ccccc4O3)CC2)c2ccccc12 (relative stereo) [Compound 28]
- IC50 (PARP-1 enzyme): 45.4 nM

SMILES: COc1ccc(CCN2CCC(c3n[nH]c(=O)c4ccccc34)CC2)cc1 [Compound 64]
- IC50 (PARP-1 enzyme): 29.2 nM

SMILES: O=c1[nH]nc(N[C@@H]2C[C@H]3CC[C@@H](C2)N3CCCC(c2ccc(F)cc2)c2ccc(F)cc2)c2ccccc12 (hydrate or solvate) [Compound 3]
- melting point: 164.4 °C

SMILES: Nc1ccc2c(=O)[nH]nc(NC3CCNCC3)c2c1 (as salt: HCl) (hydrate or solvate) [Compound 14]
- melting point: > 300 °C

SMILES: O=c1[nH]nc(NC2CCNCC2)c2cccc([N+](=O)[O-])c12 [Compound 40]
- IC50 (PARP-1 enzyme): 217 nM
- IC50 (TANK-2 enzyme): > 10000 nM

SMILES: N#CCN1CCN(c2n[nH]c(=O)c3ccccc23)CC1 [Compound 32]
- IC50 (PARP-1 enzyme): 109 nM
- IC50 (TANK-2 enzyme): 9250 nM

SMILES: O=c1[nH]nc(C2CCNCC2)c2ccccc12 (hydrate or solvate) [Compound 4]
- melting point: 264.9 °C

SMILES: O=c1[nH]nc(NCCNC2CCN(Cc3ccccc3)CC2)c2ccccc12 [Compound 42]
- IC50 (PARP-1 enzyme): 179 nM
- IC50 (TANK-2 enzyme): > 10000 nM

SMILES: Clc1nnc(NC2CCN(Cc3ccccc3)C2)c2ccccc12 (stereo not drawn) (as salt: HCl) (hydrate or solvate) [Compound 12]
- melting point: 171.8 °C

SMILES: COc1ccccc1N1CCN(c2nnc(Cl)c3ccccc23)CC1 [Compound 84]
- IC50 (TANK-2 enzyme): > 10000 nM

SMILES: O=c1[nH]nc(C2CCN(c3ccc(Cl)nn3)CC2)c2ccccc12 [Compound 62]
- IC50 (PARP-1 enzyme): 38.6 nM

SMILES: CN(c1cc2ccccc2s1)C1CCN(c2n[nH]c(=O)c3ccccc23)CC1 [Compound 54]
- IC50 (PARP-1 enzyme): 91.8 nM

SMILES: O=c1[nH]nc(C2CCN(CC(O)COc3ccc(F)c(F)c3)CC2)c2ccccc12 (stereo not drawn) [Compound 26]
- IC50 (PARP-1 enzyme): 17.3 nM
- IC50 (TANK-2 enzyme): > 10000 nM

SMILES: NC1CCN(c2n[nH]c(=O)c3ccccc23)CC1 [Compound 31]
- IC50 (PARP-1 enzyme): 119 nM
- IC50 (TANK-2 enzyme): > 10000 nM

SMILES: O=c1[nH]nc(NC2CCNCC2)c2ccccc12 [Compound 41]
- IC50 (PARP-1 enzyme): 37.7 nM
- IC50 (TANK-2 enzyme): > 10000 nM

SMILES: Nc1ccc2c(=O)[nH]nc(NC3CCNCC3)c2c1 [Compound 14]
- IC50 (PARP-1 enzyme): 766 nM
- IC50 (TANK-2 enzyme): > 10000 nM

SMILES: O=c1[nH]nc(NC2CCNCC2)c2cc(Cl)ccc12 [Compound 39]
- IC50 (PARP-1 enzyme): 213 nM
- IC50 (TANK-2 enzyme): > 10000 nM

SMILES: CCOC(=O)N1CC[C@H](Nc2nnc(Cl)c3ccccc23)C[C@@H]1Cc1ccccc1 [Compound 19]
- IC50 (TANK-2 enzyme): > 10000 nM
- melting point: 161 °C

SMILES: O=c1[nH]nc(C2CCN(CCCOc3ccc(F)cc3)CC2)c2ccccc12 (as salt: HCl) [Compound 13]
- melting point: 227.6 °C

SMILES: O=c1[nH]nc(NC2CC(Cc3ccccc3)NC(Cc3ccccc3)C2)c2ccccc12 (stereo not drawn) [Compound 38]
- IC50 (PARP-1 enzyme): 148 nM
- IC50 (TANK-2 enzyme): > 10000 nM

SMILES: O=c1[nH]nc(N[C@H]2CCN[C@@H](Cc3ccccc3)C2)c2ccccc12 (single isomer, unassigned) [Compound 35]
- IC50 (PARP-1 enzyme): 177 nM
- IC50 (TANK-2 enzyme): > 10000 nM

SMILES: CCOC(=O)N1CCC(CCNc2n[nH]c(=O)c3ccccc23)CC1 [Compound 43]
- IC50 (PARP-1 enzyme): 56.8 nM
- IC50 (TANK-2 enzyme): > 10000 nM

SMILES: CC(C)(C)OC(=O)N1CCC(CNc2n[nH]c(=O)c3ccccc23)CC1 [Compound 47]
- IC50 (PARP-1 enzyme): 182 nM
- IC50 (TANK-2 enzyme): 6370 nM

SMILES: N#CC1CCN(c2n[nH]c(=O)c3ccccc23)CC1 [Compound 18]
- melting point: 253 °C

SMILES: FC(F)(F)c1cccc(N2CCN(c3nnc(Cl)c4ccccc34)CC2)c1 [Compound 79]
- IC50 (TANK-2 enzyme): > 10000 nM

SMILES: O=c1[nH]nc(N[C@@H]2C[C@H]3CC[C@@H](C2)N3)c2ccccc12 (as salt: HBr) [Compound 15]
- melting point: > 299 °C

SMILES: Clc1cccc(N2CCN(c3nnc(Cl)c4ccccc34)CC2)c1 [Compound 80]
- IC50 (TANK-2 enzyme): > 10000 nM

SMILES: O=c1[nH]nc(NCCC2CCNCC2)c2ccccc12 [Compound 37]
- IC50 (PARP-1 enzyme): 61.8 nM
- IC50 (TANK-2 enzyme): > 10000 nM

SMILES: O=c1[nH]nc(N2CCC(NCc3ccccc3)CC2)c2ccccc12 [Compound 45]
- IC50 (PARP-1 enzyme): 109 nM
- IC50 (TANK-2 enzyme): 5430 nM

SMILES: CCOC(=O)N1CCC(Nc2nnc(Cl)c3ccc([N+](=O)[O-])cc23)CC1 [Compound 20]
- IC50 (TANK-2 enzyme): > 10000 nM
- melting point: 199 °C
